The numbers were not newly measured in US20220088213A1, “DRUG DELIVERY SYSTEM USING PH-DEPENDENT CELL-PENETRATING PEPTIDES, AND COMPOSITE THEREOF WITH DRUG” (priority 2019, published 2022), which cites them from elsewhere.

Read-outs that look alike come from different tables or passages of the source.

The test system of this series is cell membrane. The conditions noted are these: cited from earlier work.

In the case of “ATRAM (GLAGLAGLLGLEGLLGLPLGLLEGLWLGLELEGN; Penetrating Peptide)”, the cell-penetrating activity result (pH dependence) was “exhibits cell-penetrating activity only at a slightly acidic pH”.

For GALA, the cell membrane penetration result reads like this: (acidic pH conditions) “penetrates a cell membrane”; (neutral pH) “cannot penetrate the cell membrane”.
